According to BindingDB's records for doi:10.1016/S0960-894X(97)00408-3 (1997):

Molecular target: 5-hydroxytryptamine receptor 4 (Rattus norvegicus, UniProt Q62758)
Assay: Agonist activity against serotonin 5-HT4 receptor in rat tunica muscularis mucosae assay

Sequence of 5-hydroxytryptamine receptor 4 (Q62758 whole entry): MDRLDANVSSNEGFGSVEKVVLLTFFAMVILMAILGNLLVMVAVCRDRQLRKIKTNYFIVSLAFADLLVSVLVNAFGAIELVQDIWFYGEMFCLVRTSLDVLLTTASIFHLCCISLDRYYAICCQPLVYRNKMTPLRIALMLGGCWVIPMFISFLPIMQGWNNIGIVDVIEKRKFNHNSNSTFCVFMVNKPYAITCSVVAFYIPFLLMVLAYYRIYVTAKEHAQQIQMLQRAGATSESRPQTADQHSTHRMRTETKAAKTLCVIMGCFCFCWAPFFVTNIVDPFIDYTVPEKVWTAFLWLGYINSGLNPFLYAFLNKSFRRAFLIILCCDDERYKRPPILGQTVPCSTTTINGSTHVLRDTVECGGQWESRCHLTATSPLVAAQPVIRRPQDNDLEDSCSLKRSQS

An EC50 of 660 nM was found for `COc1cc(N)c(Cl)cc1C(=O)NCC1C2CC3CC1CN3C2` (configuration not stated) [4-Amino-N-(3-aza-tricyclo[3.3.1.0*3,7*]non-9-ylmethyl)-5-chloro-2-methoxy-benzamide] in this work.

An EC50 of 382 nM was found for `COc1cc(N)c(Cl)cc1C(=O)NC1C2CC3CC1CN3C2` (configuration not stated) [4-Amino-N-(3-aza-tricyclo[3.3.1.0*3,7*]non-9-yl)-5-chloro-2-methoxy-benzamide] in this work.
